The structures appear in SMILES notation.

This is an account of results in US8247351B2, “Insecticidal compositions having improved effect” (Bayer Cropscience AG, priority 2005, dated 2012).

The subject of data set [1] is Myzus persicae. Nature of the data set: Myzus persicae test, Example B (spraying top side of leaf, ammonium salt boosting). The data set is classed as in vivo. Conditions: 120 g/ha active ingredient. The protocol:
(§1) Solvent: 7 parts by weight dimethylformamide
(§2) Emulsifier: 1 part by weight alkylaryl polyglycol ether
(§3) An appropriate preparation of active ingredient is prepared by mixing 1 part by weight of active ingredient with the stated amounts of solvent and emulsifier and diluting the concentrate with water to the desired concentration. Where it is necessary to add ammonium salts, phosphonium salts or penetrant, the appropriate amount is added by pipette, after dilution, to each of the ready-prepared product solutions. Single-leaf paprika plants (Capsicum annuum) heavily infested by the green peach aphid (Myzus persicae) are treated by spraying the top side of the leaf (spray volume 600 1/ha) with the preparation of active ingredient at the desired concentration. After the desired time the destruction in % is ascertained. 100% means that all of the animals have been killed; 0% means that no animals have been killed.

Data set [2] relates to Myzus persicae. Nature of the data set: Myzus persicae test, Example C (spraying top side of leaf, ammonium salt plus penetrant). The settings on record: 120 g/ha active ingredient. The data set is classed as in vivo. How it is done:
as §1, §2
as §3, with “ready prepared” for “ready-prepared”

Data set [3] is described as follows: Penetration of active ingredient through enzymatically isolated apple leaf cuticles (Examples A-1, A-2, A-3). The settings on record: 500 ppm in DMF/Emulgator W 7:1 (w/w). The format is in vitro ADME, apple trees of the Golden Delicious variety. The protocol: This test measured the penetration of active ingredients through enzymatically isolated cuticles of apple leaves.
The leaves used were cut in the fully developed state from apple trees of the Golden Delicious variety. The cuticles were isolated as follows: • first of all, leaf discs marked on the underside with dye and formed by punching were filled by means of vacuum infiltration with a pectinase solution (0.2% to 2% strength) buffered to a pH of between 3 and 4, • then sodium azide was added and • the leaf discs thus treated were left to stand until the original leaf structure broke down and the non-cellular cuticle underwent detachment.
Thereafter only those cuticles from the top leaf sides that were free from stomata and hairs were used. They were washed a number of times in alternation with water and with a buffer solution of pH 7. The clean cuticles obtained were, finally, applied to Teflon plaques, smoothed with a gentle jet of air, and dried.
In the next step the cuticular membranes obtained in this way were placed in stainless steel diffusion cells (i.e. transport chambers) for the purpose of membrane transport investigations. For these investigations the cuticles were placed centrally using tweezers on the edges of the diffusion cells, which were coated with silicone grease, and sealed with a ring, which was likewise greased. The arrangement had been chosen so that the morphological outer face of the cuticles was directed outwards, in other words to the air, while the original inner side was facing the interior of the diffusion cell.
The diffusion cells were filled with a 30% strength ethylene glycol/water solution. Penetration was determined by applying 10 μl of the spray liquor, whose composition is indicated below, to the outer face of each cuticle. The spray liquor is made up using local tap water of medium hardness.
After the spray liquors had been applied, the water was evaporated and the chambers were then inverted and placed in thermostated troughs in which the temperature and atmospheric humidity above the cuticle was adjustable by means of a gentle stream of air onto the cuticle with the spray coating (20° C., 60% rh). At regular intervals an autosampler took aliquots which were assayed for active ingredient by HPLC.
The figures indicated are average values from 8 to 10 measurements.
Example A-2 was carried out in the same way as in Example A-1.
Example A-3 was carried out in the same way as in Example A-1.

`CCOC(=O)OC1=C(c2cc(C)ccc2C)C(=O)N[C@]12CC[C@@H](OC)CC2` [Ex. I-1-c-1]: the “Degree of destruction/% after 3 days” value with Myzus persicae [1] (AS (ammonium sulphate, 1 g/l)) worked out at 67%; with Myzus persicae [1] (No AS), 37%.
For `Cc1ccc(-c2ccc(Cl)cc2)c(C)c1C1=C(O)C2(CCOCC2)NC1=O` [Ex. I-1-a-2], the “Degree of destruction/% after 4 days” value with Myzus persicae [2] (RME (1 g/l)) was 37%; with Myzus persicae [2] (RME (1 g/l) + AS (1 g/l)) it was 92%.
For the compound `Cc1cc(Cl)cc(C)c1C1=C(O)C2(CCOCC2)NC1=O` [Example I-1-a-1], the “Penetration after 24 h/%” value in data set [3] (Table A-1, EC + AS (ammonium sulphate, 1 g/l)) came to 2.5%; in data set [3] (Table A-1, EC + RME (1 g/l) + AS (1 g/l)) it was 41%; in data set [3] (Table A-1, EC + RME (rapeseed oil methyl ester, 1 g/l)), 13.5%; in data set [3] (Table A-1, EC alone, 20° C., 60% rh), 0.6%; in data set [3] (Table A-2, EC + RME (1 g/l) + AT (ammonium thiocyanate, 1 g/l)), 12%; in data set [3] (Table A-2, EC + RME (1 g/l)), 3.5%. Further, the “Penetration after 24 h/%” value in data set [3] (Table A-2, EC alone) is below 0.2%; in data set [3] (Table A-3, EC + RME (1 g/l) + Ammonium dihydrogen-phosphate (1 g/l)), 42%; in data set [3] (Table A-3, EC + RME (1 g/l) + Diammonium hydrogen-phosphate (1 g/l)), 26%; in data set [3] (Table A-3, EC + RME (1 g/l)) it was 10%.
